According to ChEMBL document CHEMBL1201862, “PubChem BioAssay data set” (2004):
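Five concentrations, 48 hours, 96-well plates. GI50: concentration for 50% inhibition of growth.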 Calls of active or inactive are those of the source. Rule as the data show it: active = GI50 up to about 1.1 µM and inactive = higher.

How the values were obtained:
Assay in all cases: growth of human tumour cells (NCI), 48 h
ACHN = tested on: ACHN
UACC-257 = tested on: UACC-257
UO-31 = tested on: UO-31
SK-MEL-5 = tested on: SK-MEL-5
HT-29 = tested on: HT-29
A498 = tested on: A498
SW-620 = tested on: SW-620
HCT-116 = tested on: HCT-116
HOP-62 = tested on: HOP-62
U-251 = tested on: U-251
RPMI-8226 = tested on: RPMI-8226
RXF 393 = tested on: RXF 393
SF-268 = tested on: SF-268
SF-295 = tested on: SF-295
IGROV-1 = tested on: IGROV-1

Measured: GI50

O=C1NC(=S)NC(=O)C1=Cc1ccc2ccccc2n1
inactive: ACHN > 100 µM | UACC-257 > 100 µM | UO-31 > 100 µM | SK-MEL-5 > 100 µM | HT-29 > 100 µM | A498 > 100 µM | SW-620 > 100 µM | HCT-116 > 100 µM | HOP-62 > 100 µM | U-251 > 100 µM | RPMI-8226 > 100 µM | RXF 393 > 100 µM | SF-268 > 100 µM | SF-295 > 100 µM | IGROV-1 > 100 µM

Cc1ccc2nc(NC(=O)C(=O)C(C#N)c3nc4ccccc4s3)sc2c1 (stereo not drawn)
inactive: ACHN 42.3 µM | UACC-257 28 µM | UO-31 39.8 µM | SK-MEL-5 19.4 µM | HT-29 26.8 µM | A498 19.5 µM | SW-620 55.1 µM | HCT-116 38.4 µM | HOP-62 14.5 µM | U-251 33.7 µM | RPMI-8226 28.3 µM | RXF 393 31.5 µM | SF-268 51.6 µM | SF-295 37.2 µM | IGROV-1 17.8 µM

CCOC(=O)c1csc(CCCCCCc2nc(C(=O)OCC)cs2)n1
inactive: ACHN > 84.9 µM | UACC-257 34.8 µM | UO-31 > 100 µM | SK-MEL-5 41.6 µM | HT-29 > 70 µM | A498 > 100 µM | SW-620 > 41.7 µM | HCT-116 35.9 µM | HOP-62 > 57.1 µM | U-251 24 µM | RPMI-8226 > 48.8 µM | RXF 393 31.6 µM | SF-268 34 µM | SF-295 52.2 µM | IGROV-1 > 100 µM

BrC12C3C4C5C(C(C43)C13OCCO3)C52 (stereo not drawn)
inactive: ACHN > 100 µM | UACC-257 > 100 µM | UO-31 > 100 µM | SK-MEL-5 > 100 µM | HT-29 > 100 µM | A498 > 100 µM | SW-620 > 100 µM | HCT-116 > 100 µM | HOP-62 > 100 µM | U-251 > 100 µM | RPMI-8226 > 100 µM | RXF 393 > 100 µM | SF-268 > 100 µM | SF-295 > 100 µM | IGROV-1 > 100 µM

C1CN(P2(N3CC3)=NP(N3CC3)(N3CC3)=NP(N3CC3)(N3CC3)=N2)CCO1 (stereo not drawn) [FOTRETAMINE]
inactive: ACHN 37.5 µM | UACC-257 83.8 µM | UO-31 > 100 µM | SK-MEL-5 > 100 µM | HT-29 > 100 µM | A498 > 100 µM | SW-620 > 100 µM | HCT-116 > 100 µM | HOP-62 26.6 µM | U-251 71.6 µM | RPMI-8226 > 95.7 µM | RXF 393 > 100 µM | SF-268 47.3 µM | SF-295 54.7 µM | IGROV-1 > 100 µM

CC(=O)O[C@@H]1CC(C)C2CC2C2=C(C(O)OC2O)[C@@H]1C(C)CCC=C(C)C (stereo partly drawn)
inactive: ACHN 31.7 µM | UACC-257 24.1 µM | UO-31 22.2 µM | SK-MEL-5 25.3 µM | HT-29 19 µM | A498 35.7 µM | SW-620 23 µM | HCT-116 18.4 µM | HOP-62 26.9 µM | U-251 19.4 µM | RPMI-8226 25.2 µM | RXF 393 17.3 µM | SF-268 25.8 µM | IGROV-1 25.1 µM

Cc1cc2nc(O)c(CCC(=O)O)nc2cc1C
inactive: ACHN > 100 µM | UACC-257 > 100 µM | UO-31 > 100 µM | SK-MEL-5 > 100 µM | HT-29 > 100 µM | A498 > 100 µM | HCT-116 > 100 µM | HOP-62 > 100 µM | U-251 > 100 µM | RPMI-8226 > 100 µM | RXF 393 > 100 µM | SF-268 > 100 µM | SF-295 > 100 µM | IGROV-1 > 100 µM
